These results are taken from patent publication US9353101B2 (Merck Sharp & Dohme Corp., priority 2012, dated 2016).

The target in this assay is CETP (Homo sapiens (Human), UniProt P11597). In words: In vitro radioactive assay of CETP-catalyzed CE and TG transfer (RTA assay), 95% human serum. As to conditions: RTA assay in 95% human serum; read-out: RTA IC50 (CETP Inhibition). It counts as biochemical. Here is the method: In Vitro Radioactive Assays of CETP-Catalyzed CE and TG Transfer (RTA Assay)
CETP, sequence (P11597 18-493 limits assumed): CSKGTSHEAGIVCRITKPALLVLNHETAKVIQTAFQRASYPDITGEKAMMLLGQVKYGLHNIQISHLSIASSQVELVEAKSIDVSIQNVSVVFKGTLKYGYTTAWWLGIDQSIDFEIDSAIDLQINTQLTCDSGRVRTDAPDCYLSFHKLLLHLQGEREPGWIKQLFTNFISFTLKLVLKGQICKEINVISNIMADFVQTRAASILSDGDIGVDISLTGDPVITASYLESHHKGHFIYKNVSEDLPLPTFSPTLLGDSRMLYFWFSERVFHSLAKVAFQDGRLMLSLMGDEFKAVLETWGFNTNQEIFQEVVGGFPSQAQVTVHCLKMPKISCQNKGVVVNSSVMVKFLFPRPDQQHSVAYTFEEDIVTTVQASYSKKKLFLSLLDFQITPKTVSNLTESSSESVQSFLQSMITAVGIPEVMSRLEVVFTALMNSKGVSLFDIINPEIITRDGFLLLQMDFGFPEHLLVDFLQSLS
Reagents and sources are: [3H] cholesteryl oleate (GE #TRK.886), [3H] Triolein (Perkin-Elmer NET-431), Butylated hydroxyl toluene (Aldrich, #D4740-4), DOPC (Sigma, # P6354), Sodium Bromide (Fisher scientific #S255-500), PEG 8000 (Fisher, #BP233-1), and human HDL (Intracel Corp #RP-036).
An in vitro assay for determining IC50's to identify compounds that inhibit CETP transfer activity is performed based on a modification of a published method (Morton and Zilversmit, (1981) A plasma inhibitor of triglyceride and cholesteryl ester transfer activities, J. Biol. Chem. 256(23), 11992-11995). The ability of inhibitors to alter CETP activity is performed using two different assays: one using recombinant CETP and one using an endogenous plasma source of CETP. Both assays measure the transfer of [3H] cholesteryl oleate or [3H] triolein from exogenous LDL to HDL.
Radiolabeled donor particles are generated by first combining 100 μl of 200 μM butylated hydroxyl toluene in CHCl3, 216 μL of 21.57 mM DOPC in EtOH, and either 500 μCi [3H]-triolein (Perkin Elmer #NET-431) or 500 μCi [3H]-cholesteryl oleate (GE #TRK886) in a glass tube. Reagents are mixed, dried under nitrogen, and then resuspended in 2 mL of 50 mM Tris, 27 μM EDTA at pH 7.4. After a brief vortex, the solution is sonicated until clear and mixed with 20 mL of fresh human serum. The mixture is incubated overnight at 37° C. The [3H] labeled LDL substrate is separated at 1.063 g/ml density by sequential ultracentrifugal flotation in NaBr according to the method by (Havel, Eder et al. 1955; Chapman, Goldstein et al. 1981). Once isolated the particles are dialyzed 3× in CETP buffer (50 mM Tris, pH 7.4, 100 mM NaCl, 1 mM EDTA). Human HDL is purchased from Intracel and used as the acceptor particles.
Transfer assays are performed in a 96 or 384-well v-bottom polypropylene plate. For the RTA using recombinant CETP (2% RTA), an assay cocktail is prepared with the final concentrations 128 μg/mL HDL, 20 nM rCETP, 2% human serum, and 1×CETP buffer. 1 μL of each test compound diluted in DMSO is added to 47 μL of assay cocktail per well and incubated at 37° C. for 1 hour. To initiate the transfer reaction, 2 μL radiolabeled LDL is added. After an additional 60 min of incubation at 37° C., the transfer action is terminated by precipitation of LDL with an equal volume of 20% W/V PEG 8000. The plates are centrifuged at 2000 rpm for 30 minutes at 4° C. A 40 μL aliquot of the HDL-containing supernatant is transferred to a Packard Optiplate™ with 200 μL of MicroScint™ 20. After mixing, plates are counted by liquid scintillation. Counts present in the supernatant for blanks (wells containing only HDL acceptor, CETP buffer and DMSO) are subtracted from those containing test compounds and used to correct for non-specific transfer.
For the transfer assay using endogenous CETP from serum (95% RTA), the same procedure is used except that human serum is added such that a final concentration of serum of 95% of the total assay volume is achieved, yielding a concentration of approximately 15 nM endogenous CETP in the assay. This is then combined with HDL and CETP buffer and the reaction proceeds as above and is terminated as described.
Comparison of the counts of samples with inhibitors to an uninhibited (DMSO only) positive control yield a percent inhibition. A plot of percent inhibition vs. log of inhibitor concentration, fit to a Sigmoidal 4 parameter equation is used to calculate IC50.
Starting materials are commercially available or are made using known procedures or as shown below. The examples may be synthesized using the general schemes provided below. The data reported for the examples below were obtained using the RTA assay in 95% human serum.
The term IC50 denotes the concentration that inhibits the measured activity by half. Regarding `COc1ncc(-c2c(C)cc(-c3n[nH]c(=O)o3)cc2C)cc1-c1cnc(N2CC(F)C2)nc1CN1C(=O)O[C@H](c2cc(C(F)(F)F)cc(C(F)(F)F)c2)[C@@H]1C` [Example 33, 5-(4-{5-[4-({(4S,5R)-5-[3,5-Bis(trifluoromethyl)phenyl]-4-methyl-2-oxo-1,3-oxazolidin-3-yl}methyl)-2-(3-fluoroazetidin-1-yl)pyrimidin-5-yl]-6-methoxypyridin-3-yl}-3,5-dimethylphenyl)-1,3,4-oxadiazol-2(3H)-one], the IC50 stood at 8 nM. As for `COc1ncc(-c2c(C)cc(C(=O)O)cc2C)cc1-c1cnc(N2CCOCC2)nc1CN1C(=O)O[C@H](c2cc(C(F)(F)F)cc(C(F)(F)F)c2)[C@@H]1C` [Example 34, 4-{5-[4-({(4S,5R)-5-[3,5-Bis(trifluoromethyl)phenyl]-4-methyl-2-oxo-1,3-oxazolidin-3-yl}methyl)-2-(morpholin-4-yl)pyrimidin-5-yl]-6-methoxypyridin-3-yl}-3,5-dimethylbenzoic acid], the half-inhibitory concentration (IC50) amounted to 10 nM. Consider `COc1ncc(-c2c(C)cc(-c3n[nH]c(=O)o3)cc2C)cc1-c1cnc(N2CCOCC2)nc1CN1C(=O)O[C@H](c2cc(C(F)(F)F)cc(C(F)(F)F)c2)[C@@H]1C` [Example 35, 5-(4-{5-[4-({(4S,5R)-5-[3,5-Bis(trifluoromethyl)phenyl]-4-methyl-2-oxo-1,3-oxazolidin-3-yl}methyl)-2-(morpholin-4-yl)pyrimidin-5-yl]-6-methoxypyridin-3-yl}-3,5-dimethylphenyl)-1,3,4-oxadiazol-2(3H)-one], for which the IC50 amounted to 10 nM. Turning to `COc1ncc(-c2ccc(C(=O)O)cc2C)cc1-c1cnc(N2CC(F)C2)nc1CN1C(=O)O[C@H](c2cc(C(F)(F)F)cc(C(F)(F)F)c2)[C@@H]1C` [Example 36, 4-{5-[4-({(4S,5R)-5-[3,5-Bis(trifluoromethyl)phenyl]-4-methyl-2-oxo-1,3-oxazolidin-3-yl}methyl)-2-(3-fluoroazetidin-1-yl)pyrimidin-5-yl]-6-methoxypyridin-3-yl}-3-methylbenzoic acid], the IC50 was determined as 12 nM.

In the case of `COc1ncc(-c2ccc(C(=O)Nc3nnn[nH]3)cc2C)cc1-c1cnc(N2CC(F)C2)nc1CN1C(=O)O[C@H](c2cc(C(F)(F)F)cc(C(F)(F)F)c2)[C@@H]1C` [Example 37, 4-{5-[4-({(4S,5R)-5-[3,5-Bis(trifluoromethyl)phenyl]-4-methyl-2-oxo-1,3-oxazolidin-3-yl}methyl)-2-(3-fluoroazetidin-1-yl)pyrimidin-5-yl]-6-methoxypyridin-3-yl}-3-methyl-N-(1H-tetrazol-5-yl)benzamide], the IC50 is 10 nM. Regarding `COc1ncc(-c2ccc(-c3n[nH]c(=O)o3)cc2C)cc1-c1cnc(N2CC(F)C2)nc1CN1C(=O)O[C@H](c2cc(C(F)(F)F)cc(C(F)(F)F)c2)[C@@H]1C` [Example 38, 5-(4-{5-[4-({(4S,5R)-5-[3,5-Bis(trifluoromethyl)phenyl]-4-methyl-2-oxo-1,3-oxazolidin-3-yl}methyl)-2-(3-fluoroazetidin-1-yl)pyrimidin-5-yl]-6-methoxypyridin-3-yl}-3-methylphenyl)-1,3,4-oxadiazol-2(3H)-one], the IC50 was found to be 12 nM. Consider `COc1ncc(-c2ccc(C(=O)O)cc2C)cc1-c1cnc(N2CCOCC2)nc1CN1C(=O)O[C@H](c2cc(C(F)(F)F)cc(C(F)(F)F)c2)[C@@H]1C` [Example 39, 4-{5-[4-({(4S,5R)-5-[3,5-Bis(trifluoromethyl)phenyl]-4-methyl-2-oxo-1,3-oxazolidin-3-yl}methyl)-2-(morpholin-4-yl)pyrimidin-5-yl]-6-methoxypyridin-3-yl}-3-methylbenzoic acid], for which the IC50 came to 13 nM.

Consider `COc1ncc(-c2ccc(-c3n[nH]c(=O)o3)cc2C)cc1-c1cnc(N2CCOCC2)nc1CN1C(=O)O[C@H](c2cc(C(F)(F)F)cc(C(F)(F)F)c2)[C@@H]1C` [Example 40, 5-(4-{5-[4-({(4S,5R)-5-[3,5-Bis(trifluoromethyl)phenyl]-4-methyl-2-oxo-1,3-oxazolidin-3-yl}methyl)-2-(morpholin-4-yl)pyrimidin-5-yl]-6-methoxypyridin-3-yl}-3-methylphenyl)-1,3,4-oxadiazol-2(3H)-one], for which the IC50 amounted to 29 nM. As to `COc1ncc(-c2ccc(C(=O)Nc3nnn[nH]3)cc2C)cc1-c1cnc(N2CCOCC2)nc1CN1C(=O)O[C@H](c2cc(C(F)(F)F)cc(C(F)(F)F)c2)[C@@H]1C` [Example 41, 4-{5-[4-({(4S,5R)-5-[3,5-Bis(trifluoromethyl)phenyl]-4-methyl-2-oxo-1,3-oxazolidin-3-yl}methyl)-2-(morpholin-4-yl)pyrimidin-5-yl]-6-methoxypyridin-3-yl}-3-methyl-N-(1H-tetrazol-5-yl)benzamide], the IC50 was determined as 11 nM. Turning to `COc1ncc(-c2ccc(C(=O)O)cc2C)cc1-c1cnc(N2CC(F)(F)C2)nc1CN1C(=O)O[C@H](c2cc(C(F)(F)F)cc(C(F)(F)F)c2)[C@@H]1C` [Example 42, 4-{5-[4-({(4S,5R)-5-[3,5-Bis(trifluoromethyl)phenyl]-4-methyl-2-oxo-1,3-oxazolidin-3-yl}methyl)-2-(3,3-difluoroazetidin-1-yl)pyrimidin-5-yl]-6-methoxypyridin-3-yl}-3-methylbenzoic acid], the IC50 came out at 9 nM. Next, `COc1ncc(-c2ccc(C(=O)O)cc2C)cc1-c1cnc(-n2ccnc2)nc1CN1C(=O)O[C@H](c2cc(C(F)(F)F)cc(C(F)(F)F)c2)[C@@H]1C` [Example 43, 4-{5-[4-({(4S,5R)-5-[3,5-Bis(trifluoromethyl)phenyl]-4-methyl-2-oxo-1,3-oxazolidin-3-yl}methyl)-2-(1H-imidazol-1-yl)pyrimidin-5-yl]-6-methoxypyridin-3-yl}-3-methylbenzoic acid]: 109 nM; `COc1ncc(-c2ccc(C(=O)O)cc2C)cc1-c1cnc(N2CC(F)C2)nc1CN1C(=O)O[C@H](c2cc(F)cc(F)c2)[C@@H]1C` [Example 44, 4-{5-[4-{[(4S,5R)-5-(3,5-Difluorophenyl)-4-methyl-2-oxo-1,3-oxazolidin-3-yl]methyl}-2-(3-fluoroazetidin-1-yl)pyrimidin-5-yl]-6-methoxypyridin-3-yl}-3-methylbenzoic acid]: 35 nM. As for `COc1ncc(-c2ccc(C(=O)O)cc2C)cc1-c1cnc(N2CC(F)C2)nc1CN1C(=O)O[C@H](c2cccc(OC(F)(F)F)c2)[C@@H]1C` [Example 45, 4-{5-[2-(3-Fluoroazetidin-1-yl)-4-({(4S,5R)-4-methyl-2-oxo-5-[3-(trifluoromethoxy)phenyl]-1,3-oxazolidin-3-yl}methyl)pyrimidin-5-yl]-6-methoxypyridin-3-yl}-3-methylbenzoic acid], the IC50 was determined as 50 nM. `COc1ncc(-c2ccc(C(=O)O)cc2C)cc1-c1cnc(N2CC(F)C2)nc1CN1C(=O)O[C@H](c2cc(F)cc(C(F)(F)F)c2)[C@@H]1C` [Example 46, 4-{5-[2-(3-Fluoroazetidin-1-yl)-4-({(4S,5R)-5-[3-fluoro-5-(trifluoromethyl)phenyl]-4-methyl-2-oxo-1,3-oxazolidin-3-yl}methyl)pyrimidin-5-yl]-6-methoxypyridin-3-yl}-3-methylbenzoic acid]: the IC50 turned out to be 12 nM. In the case of `COc1ncc(-c2ccc(C(=O)O)cc2C)cc1-c1cnc(N2CC(F)(F)C2)nc1CN1C(=O)O[C@H](c2cc(F)cc(C(F)(F)F)c2)[C@@H]1C` [Example 47, 4-{5-[2-(3,3-Difluoroazetidin-1-yl)-4-({(4S,5R)-5-[3-fluoro-5-(trifluoromethyl)phenyl]-4-methyl-2-oxo-1,3-oxazolidin-3-yl}methyl)pyrimidin-5-yl]-6-methoxypyridin-3-yl}-3-methylbenzoic acid], the IC50 amounted to 9 nM.
